# Paper PMC8149581 (Chemistry of Heterocyclic Compounds, 2021)
# Tested on: influenza A/Puerto Rico/8/34 (H1N1) virus
# Format: cell-based
row,Structure (SMILES),IC50 (antiviral activity) [µg/mL]
1,"Nc1c(Br)cc([N+](=O)[O-])cc1-c1nnn(C23CC4CC(CC(C4)C2)C3)n1 [Compound 3h, 2-[2-(Adamantan-1-yl)-2 H -tetrazol-5-yl]-6-bromo-4-nitroaniline]",15 ± 3
2,"Nc1cc(-c2nnn(C34CC5CC(CC(C5)C3)C4)n2)ccc1O [Compound 3i, 4-[2-(Adamantan-1-yl)-2 H -tetrazol-5-yl]-2-aminophenol]",15 ± 2
3,"CC(N)C12CC3CC(CC(C3)C1)C2 (stereo not drawn) [Rimantadine, reference compound]",12 ± 2
